Experimental data: patent US12509424B2, “Compound and composition as PDGF receptor kinase inhibitor” (NIPPON SHINYAKU CO., LTD., priority 2019, dated 2025)
pIC50: −log10 of the molar value. Where two headings read alike, the source gives them in different places.

Key:
[1] = target: PDGFR-β (Homo sapiens (Human), UniProt P09619); test: PDGFR-β tyrosine kinase inhibitory action (HTRF KinEASE-TK); format: biochemical; details: PDGFR-β enzyme 1 ng/μL, 30° C. for 30 minutes; read-out: PDGF-β IC50
Protocol: (§1) 1. Preparation of Test Substance
This DMSO solution was diluted by 8 times with an assay buffer 1 (50 mM HEPES (pH 7.0), 0.02% NaN3, 0.01% Bovine Serum Albumin, 0.1 mM orthovanadate, 1 mM Dithiothreitol, 5 mM MgCl2, and 1 mM MnCl2) and further diluted by 5 times with an assay buffer 2 (50 mM HEPES (pH 7.0), 0.02% NaN3, 0.01% Bovine Serum Albumin, 0.1 mM orthovanadate, 1 mM Dithiothreitol, 5 mM MgCl2, 1 mM MnCl2, and 40 nM Supplemented Enzymatic Buffer (cisbio)).
2. Measurement of PDGFR-β Tyrosine Kinase Inhibitory Action
For the measurement, the HTRF KinEASE-TK kit from Cisbio Bioassays SAS was used. To a 384 well plate, the test substance solution was added at 4 μL each, then 2 μL of a PDGFR-β enzyme solution (final concentration of 1 ng/μL, Carna Biosciences, Inc.) and 4 μL of a substrate solution obtained by adding 0.6 μM ATP to TK substrate-3-biotin (cisbio) were added, and the solution was allowed to react at 30° C. for 30 minutes at a final concentration of the test substance being 0.01 to 10,000 nM.
Thereafter, 10 μL of a detection solution (cisbio) was added to each well and allowed to react at 30° C. for 1 hour. The fluorescence intensity was measured with a microplate reader (Spectra Max M5, Molecular device).
(§2) 3. Analysis of Measurement Results

[2] = system: pulmonary arterial smooth muscle cells; test: Suppression of proliferation of pulmonary arterial smooth muscle cells (PDGF-BB stimulation, BrdU); format: cell-based; details: healthy human derived pulmonary arterial smooth muscle cells, human PDGF-BB 10 ng/mL stimulation, BrdU uptake after 1 day, test substance final concentration 3 to 10,000 nM, read-out: Human normal PASMC proliferation suppression (PDGF stimulation_IC50)
Protocol: as §1
Furthermore, it was diluted by 50 times with distilled water.
2. Measurement of Suppression Action Against Proliferation of Pulmonary Arterial Smooth Muscle Cells
The day after healthy human derived pulmonary arterial smooth muscle cells were seeded onto a 96 well plate using a smooth muscle cell proliferation medium, the proliferation medium was replaced with a 0.1% FBS medium, and the cells were cultured for an additional day. A test substance solution was diluted by 10 times with a medium containing BrdU and human PDGF-BB (final concentration of 10 ng/mL, Sigma-Aldrich) and added to cells in equal amounts so as to reach a final concentration of 3 to 10,000 nM. Also, to the human PDGF-BB negative control, BrdU and 0.1% DMSO solution were added. After culturing for 1 day, the amount of BrdU taken up by the proliferating cells was measured using an anti-BrdU antibody.
as §2

PDGFR-β, sequence (P09619 33-1106): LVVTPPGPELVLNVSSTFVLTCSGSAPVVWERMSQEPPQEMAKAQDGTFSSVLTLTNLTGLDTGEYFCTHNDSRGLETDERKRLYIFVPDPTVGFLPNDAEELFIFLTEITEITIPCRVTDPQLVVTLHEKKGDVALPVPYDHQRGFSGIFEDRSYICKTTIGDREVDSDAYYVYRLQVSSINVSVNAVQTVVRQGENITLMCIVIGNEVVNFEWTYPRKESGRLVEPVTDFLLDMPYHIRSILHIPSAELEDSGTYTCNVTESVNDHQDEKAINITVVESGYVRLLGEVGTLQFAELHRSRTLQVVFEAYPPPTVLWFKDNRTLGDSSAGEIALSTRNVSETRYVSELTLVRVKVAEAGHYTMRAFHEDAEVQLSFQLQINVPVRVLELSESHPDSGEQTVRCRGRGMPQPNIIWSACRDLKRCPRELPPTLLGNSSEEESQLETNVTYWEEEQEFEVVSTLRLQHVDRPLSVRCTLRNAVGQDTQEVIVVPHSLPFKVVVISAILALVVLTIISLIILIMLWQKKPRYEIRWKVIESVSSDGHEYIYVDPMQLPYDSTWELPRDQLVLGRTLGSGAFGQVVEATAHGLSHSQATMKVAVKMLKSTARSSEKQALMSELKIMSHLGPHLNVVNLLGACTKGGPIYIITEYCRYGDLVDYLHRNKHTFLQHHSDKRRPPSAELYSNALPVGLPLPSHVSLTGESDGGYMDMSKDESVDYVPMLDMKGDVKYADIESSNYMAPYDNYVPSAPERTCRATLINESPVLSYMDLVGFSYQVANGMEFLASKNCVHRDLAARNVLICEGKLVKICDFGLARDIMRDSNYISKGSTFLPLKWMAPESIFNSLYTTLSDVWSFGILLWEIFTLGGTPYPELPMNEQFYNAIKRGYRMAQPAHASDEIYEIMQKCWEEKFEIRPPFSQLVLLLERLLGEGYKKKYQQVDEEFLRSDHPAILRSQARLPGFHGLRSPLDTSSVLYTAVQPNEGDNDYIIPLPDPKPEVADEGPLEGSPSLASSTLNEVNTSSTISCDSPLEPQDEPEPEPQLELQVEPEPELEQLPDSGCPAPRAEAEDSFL

Row | pIC50 [1] | SMILES | pIC50 ([2]; PASMC, 24 h) | pIC50 [2]
1 | 7.70 | Cc1ccc(C(=O)N[C@H]2CCCC[C@@H]2O)cc1NCc1ccc(NC(=O)C2CC2)nc1 [Example 120, 3-[({6-[(cyclopropanecarbonyl)amino]pyridin-3-yl}methyl)amino]-N-[(1S,2S)-2-hydroxycyclohexyl]-4-methylbenzamide] | 7.47 | 
2 | 6.80 | Cc1ccc(C(=O)N[C@H]2CCCC[C@@H]2O)cc1NCc1cnc(-c2ccccc2)nc1 [Example 121, N-[(1S,2S)-2-hydroxycyclohexyl]-4-methyl-3-{[(2-phenylpyrimidin-5-yl)methyl]amino}benzamide] | 6.52 | 
3 | 6.82 | Cc1ccc(C(=O)N[C@H]2CCCC[C@@H]2O)cc1NCc1ccc(-n2cccn2)nc1 [Example 122, N-[(1S,2S)-2-hydroxycyclohexyl]-4-methyl-3-({[6-(1H-pyrazol-1-yl)pyridin-3-yl]methyl}amino)benzamide] | 6.52 | 
4 | 6.68 | Cc1ncc(C(=O)N[C@H]2CCCC[C@@H]2O)cc1NCc1cnn2ccccc12 [Example 123, N-[(1S,2S)-2-hydroxycyclohexyl]-6-methyl-5-{[(pyrazolo[1,5-a]pyridin-3-yl)methyl]amino}pyridine-3-carboxamide] | 6.54 | 
5 | 7.66 | COC(=O)Nc1ccc(CNc2cc(C(=O)N[C@H]3CCCC[C@@H]3O)ccc2C)cn1 [Example 124, methyl {5-[(5-{[(1S,2S)-2-hydroxycyclohexyl]carbamoyl}-2-methylanilino)methyl]pyridin-2-yl}carbamate] | 7.60 | 
6 | 6.89 | Cc1ccc(C(=O)N[C@H]2CCCC[C@@H]2O)cc1NCc1ccc(NC2CCOCC2)nc1 [Example 125, N-[(1S,2S)-2-hydroxycyclohexyl]-4-methyl-3-[({6-[(oxan-4-yl)amino]pyridin-3-yl}methyl)amino]benzamide] | 7.52 | 
7 | 7.35 | Cc1ccc(C(=O)N[C@H]2CCCC[C@@H]2O)cc1NCc1cnc(Nc2ccccn2)nc1 [Example 126, N-[(1S,2S)-2-hydroxycyclohexyl]-4-methyl-3-[({2-[(pyridin-2-yl)amino]pyrimidin-5-yl}methyl)amino]benzamide] | 7.19 | 
8 | 7.20 | Cc1ccc(C(=O)N[C@H]2CCCC[C@@H]2O)cc1NCc1ccc(NC(=O)N2CCOCC2)nc1 [Example 127, N-{5-[(5-{[(1S,2S)-2-hydroxycyclohexyl]carbamoyl}-2-methylanilino)methyl]pyridin-2-yl}morpholine-4-carboxamide] | 7.35 | 
9 | 6.74 | COc1ccc(-c2ncc(CNc3cc(C(=O)N[C@H]4CCCC[C@@H]4O)ccc3C)cn2)cc1 [Example 128, N-[(1S,2S)-2-hydroxycyclohexyl]-3-({[2-(4-methoxyphenyl)pyrimidin-5-yl]methyl}amino)-4-methylbenzamide] | 7.10 | 
10 | 7.77 | Cc1ccc(C(=O)N[C@H]2CCCC[C@@H]2O)cc1NCc1ccc(NC(=O)Nc2cccnc2)nc1 [Example 129, N-[(1S,2S)-2-hydroxycyclohexyl]-4-methyl-3-{[(6-{[(pyridin-3-yl)carbamoyl]amino}pyridin-3-yl)methyl]amino}benzamide] | 7.70 | 
11 | 7.10 | Cc1ccc(C(=O)N[C@H]2CCCC[C@@H]2O)cc1NCc1ccc(NC2CCC2)nc1 [Example 130, 3-({[6-(cyclobutylamino)pyridin-3-yl]methyl}amino)-N-[(1S,2S)-2-hydroxycyclohexyl]-4-methylbenzamide] | 7.28 | 
12 | 6.31 | Cc1ccc(C(=O)N[C@H]2CCCC[C@@H]2O)cc1NCc1cnc(N)cn1 [Example 131, 3-{[(5-aminopyrazin-2-yl)methyl]amino}-N-[(1S,2S)-2-hydroxycyclohexyl]-4-methylbenzamide] | 6.47 | 
13 | 7.14 | Cc1ccc(C(=O)N[C@H]2CCCC[C@@H]2O)cc1NCc1cnc(NC2CCOCC2)nc1 [Example 132, N-[(1S,2S)-2-hydroxycyclohexyl]-4-methyl-3-[({2-[(oxan-4-yl)amino]pyrimidin-5-yl}methyl)amino]benzamide] | 7.14 | 
14 | 6.77 | Cc1ccc(C(=O)N[C@H]2CCCC[C@@H]2O)cc1NCc1ccc(NC(=O)N(C)C2CC2)nc1 [Example 133, 3-{[(6-{[cyclopropyl(methyl)carbamoyl]amino}pyridin-3-yl)methyl]amino}-N-[(1S,2S)-2-hydroxycyclohexyl]-4-methylbenzamide] | 6.96 | 
15 | 6.77 | Cc1ccc(C(=O)N[C@H]2CCCC[C@@H]2O)cc1NCc1ccc(NC(C)C)nc1 [Example 134, N-[(1S,2S)-2-hydroxycyclohexyl]-4-methyl-3-[({6-[(propan-2-yl)amino]pyridin-3-yl}methyl)amino]benzamide] | 7.22 | 
16 | 6.92 | Cc1ccc(C(=O)N[C@H]2CCCC[C@@H]2O)cc1NCc1cnc(N[C@@H]2CCOC2)nc1 [Example 135, N-[(1S,2S)-2-hydroxycyclohexyl]-4-methyl-3-{[(2-{[(3R)-oxolan-3-yl]amino}pyrimidin-5-yl)methyl]amino}benzamide] | 6.41 | 
17 | 7.49 | Cc1ccc(C(=O)N[C@H]2CCCC[C@@H]2O)cc1NCc1cnc(N[C@H]2CCOC2)nc1 [Example 136, N-[(1S,2S)-2-hydroxycyclohexyl]-4-methyl-3-{[(2-{[(3S)-oxolan-3-yl]amino}pyrimidin-5-yl)methyl]amino}benzamide] | 6.82 | 
18 | 7.39 | Cc1ccc(C(=O)N[C@H]2CCCC[C@@H]2O)cc1NCc1ccc(NC(=O)C2CCOCC2)nc1 [Example 137, N-{5-[(5-{[(1S,2S)-2-hydroxycyclohexyl]carbamoyl}-2-methylanilino)methyl]pyridin-2-yl}oxane-4-carboxamide] | 7.22 | 
19 | 7.80 | COC1CC(C(=O)Nc2ccc(CNc3cc(C(=O)N[C@H]4CCCC[C@@H]4O)ccc3C)cn2)C1 (stereo partly drawn) [Example 138, N-[(1S,2S)-2-hydroxycyclohexyl]-3-{[(6-{[(1r,3r)-3-methoxycyclobutane-1-carbonyl]amino}pyridin-3-yl)methyl]amino}-4-methylbenzamide] |  | 7.29
20 | 7.52 | Cc1ccc(C(=O)N[C@H]2CCCC[C@@H]2O)cc1NCc1ccc(NC(=O)C2CCOC2)nc1 (stereo partly drawn) [Example 139, N-{5-[(5-{[(1S,2S)-2-hydroxycyclohexyl]carbamoyl}-2-methylanilino)methyl]pyridin-2-yl}oxolane-3-carboxamide] | 7.00 | 
21 | 6.48 | Cc1ccc(C(=O)N[C@H]2CCCC[C@@H]2O)cc1NCc1ccc(-n2ccnn2)nc1 [Example 140, N-[(1S,2S)-2-hydroxycyclohexyl]-4-methyl-3-({[6-(1H-1,2,3-triazol-1-yl)pyridin-3-yl]methyl}amino)benzamide] | 7.37 | 
22 | 7.16 | Cc1ccc(C(=O)N[C@H]2CCCC[C@@H]2O)cc1NCc1ccc(NC2COC2)nc1 [Example 141, N-[(1S,2S)-2-hydroxycyclohexyl]-4-methyl-3-[({6-[(oxetan-3-yl)amino]pyridin-3-yl}methyl)amino]benzamide] | 6.72 | 
23 | 6.68 | Nc1ncc(CNc2cc(C(=O)N[C@H]3CCCC[C@@H]3O)ccc2Cl)cn1 [Example 142, 3-{[(2-aminopyrimidin-5-yl)methyl]amino}-4-chloro-N-[(1S,2S)-2-hydroxycyclohexyl]benzamide] | 6.89 | 
